The target in the first test is mouse NPY Y5 receptor (Mus musculus (Mouse), UniProt O70342). The test is described as follows: Affinity for mouse NPY Y5 receptor ([125I] peptide YY binding, CHO cell membranes). The following applies: membranes from CHO cells expressing mouse NPY Y5 receptor, [125I] peptide YY 60 pM, 25° C., 2 hours; read-out: 50% inhibitory concentration against the specific peptide YY binding (IC50 value). An excerpt:
cDNA sequence encoding a mouse NPY Y5 receptor (Biochim. Biophys. Acta 1328:83-89, 1997) was cloned in a vector (pME18S, Takebe et al. Mol. Cell. Biol. 8, 8957). The obtained expression vector was transfected into CHO cells as a host by using Lipofect AMINE reagent (Trademark, Gico BRL Co., Ltd.) according to the instruction manual. The cells that stably express NPY Y5 receptor were obtained.
(§1) The membranes prepared from the CHO cells expressing NPY Y5 receptor, the compound of this invention and 30,000 cpm [^125I] peptide YY (60 pM of final concentration: Healthcare) were incubated in the assay buffer (20 mM HEPES-Hanks buffer containing 0.1% bovine serum albumin, pH 7.4) at 25° C. for 2 hours, and then the membrane was filtered from the mixture through a glass filter (GF/C) presoaked with 1% polyethyleneimine. After washing with 50 mM Tris-HCl buffer (pH 7.4), radioactivity retained on the filters was quantified with a gamma counter. Nonspecific binding was defined as the amount of radioactivity bound to the membranes after incubation in the presence of 200 nM of peptide YY. The 50% inhibitory concentration of the test compound against the specific peptide YY binding (IC50 value) was calculated (Inui, A. et al. Endocrinology 131, 2090-2096 (1992)).
Chain of mouse NPY Y5 receptor (O70342 whole entry): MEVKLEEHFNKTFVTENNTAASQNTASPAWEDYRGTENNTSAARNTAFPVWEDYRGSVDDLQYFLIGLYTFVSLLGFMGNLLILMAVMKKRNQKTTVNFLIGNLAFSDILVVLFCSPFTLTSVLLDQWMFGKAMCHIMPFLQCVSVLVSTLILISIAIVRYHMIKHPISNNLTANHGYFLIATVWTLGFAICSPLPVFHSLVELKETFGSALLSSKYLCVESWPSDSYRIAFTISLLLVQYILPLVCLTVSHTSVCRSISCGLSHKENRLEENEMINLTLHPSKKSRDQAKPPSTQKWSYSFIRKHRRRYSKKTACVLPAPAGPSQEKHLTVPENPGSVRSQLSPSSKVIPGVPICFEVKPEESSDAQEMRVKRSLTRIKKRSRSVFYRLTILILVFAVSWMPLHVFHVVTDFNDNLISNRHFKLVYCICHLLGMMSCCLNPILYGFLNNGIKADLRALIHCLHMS
`CC(C)S(=O)(=O)NC[C@H]1CC[C@H](Nc2nc(C(F)(F)F)co2)CC1` [Compound I-150]: the IC50 was found to be 3.6 nM.

On to `CC(C)S(=O)(=O)NC[C@H]1CC[C@H](Nc2nc(-c3ccccc3)no2)CC1` [Compound I-024], for which the IC50 came to 0.13 nM.

With `CCS(=O)(=O)NC[C@H]1CC[C@H](Nc2nc(C(F)(F)C(F)(F)F)no2)CC1` [Compound I-153], the IC50 turned out to be 1.67 nM.

As to `CCS(=O)(=O)NC[C@H]1CC[C@H](Nc2nc(-c3ccccc3)no2)CC1` [Compound I-011], the IC50 worked out at 0.34 nM.

Regarding `CC(C)(c1ccccc1)c1noc(N[C@H]2CC[C@H](CNS(=O)(=O)C(C)(C)C)CC2)n1` [Compound I-130], the IC50 came out at 0.7 nM.

Take `CC(C)S(=O)(=O)NC[C@H]1CC[C@H](Nc2nc(C(F)(F)F)no2)CC1` [Compound I-145]: the IC50 is 3.1 nM.

As for `CCS(=O)(=O)NC[C@H]1CC[C@H](Nc2nc(C3(F)CCCC3)no2)CC1` [Compound I-138], the IC50 was determined as 0.5 nM.

For `CC1(c2noc(N[C@H]3CC[C@H](CNS(=O)(=O)C(C)(C)C)CC3)n2)CC(F)(F)C1` [Compound I-143], the IC50 is 0.8 nM.

With `CCS(=O)(=O)NC[C@H]1CC[C@H](Nc2nc(-c3ccc(F)cc3F)no2)CC1` [Compound I-034], the IC50 turned out to be 0.18 nM.

Consider `CC(C)S(=O)(=O)NC[C@H]1CC[C@H](Nc2nc(C(F)(F)C(F)(F)F)no2)CC1` [Compound I-152], for which the IC50 worked out at 0.65 nM.

For `CC(C)(C)S(=O)(=O)NC[C@H]1CC[C@H](Nc2nc(-c3ccc(F)cn3)no2)CC1` [Compound I-100], the IC50 amounted to 0.9 nM.

With `CC(C)(C)S(=O)(=O)NC[C@H]1CC[C@H](Nc2nc(C(F)(F)C(F)(F)F)no2)CC1` [Compound I-149], the IC50 amounted to 1.04 nM.

On to `CS(=O)(=O)NC[C@H]1CC[C@H](Nc2nc(-c3ccc(F)cc3)no2)CC1` [Compound I-023], for which the IC50 was 1.4 nM.

As to `CCS(=O)(=O)NC[C@H]1CC[C@H](Nc2nc(-c3ccc(F)cc3)no2)CC1` [Compound I-006], the IC50 is 0.32 nM.

`CC(C)(C)S(=O)(=O)NC[C@H]1CC[C@H](Nc2nc(C(F)(F)F)no2)CC1` [Compound I-136]: the IC50 was determined as 1.5 nM.

In the case of `CS(=O)(=O)NC[C@H]1CC[C@H](Nc2nc(-c3cccc(F)c3)no2)CC1` [Compound I-027], the IC50 was determined as 0.86 nM.

For the molecule `CC(C)(C)S(=O)(=O)NC[C@H]1CC[C@H](Nc2nc(C(F)(F)F)co2)CC1` [Compound I-146], the IC50 is 4.21 nM.

For `CC(C)S(=O)(=O)NC[C@H]1CC[C@H](Nc2nc(-c3ccc(F)cn3)no2)CC1` [Compound I-099], the IC50 was determined as 0.8 nM.

Take `CC(C)S(=O)(=O)NC[C@H]1CC[C@H](Nc2nc(C3(C)CC(F)(F)C3)no2)CC1` [Compound I-147]: the IC50 is 0.61 nM.

With `CC(C)S(=O)(=O)NC[C@H]1CC[C@H](Nc2nc(-c3cccc(F)c3)no2)CC1` [Compound I-018], the IC50 amounted to 0.2 nM.

For the molecule `CCS(=O)(=O)NC[C@H]1CC[C@H](Nc2nc(-c3cc(F)cc(F)c3)no2)CC1` [Compound I-053], the IC50 is 0.23 nM.

`CCS(=O)(=O)NC[C@H]1CC[C@H](Nc2nc(-c3cccc(F)c3)no2)CC1` [Compound I-017]: the IC50 turned out to be 0.22 nM.

As for `CC(C)(C)S(=O)(=O)NC[C@H]1CC[C@H](Nc2nc(C3(F)CC(F)(F)C3)no2)CC1` [Compound I-161], the IC50 amounted to 1.9 nM.

Turning to `CCS(=O)(=O)NC[C@H]1CC[C@H](Nc2nc(-c3ccc(F)c(F)c3)no2)CC1` [Compound I-029], the IC50 is 0.22 nM.

Regarding `CS(=O)(=O)NC[C@H]1CC[C@H](Nc2nc(-c3cccc(Cl)c3)no2)CC1` [Compound I-081], the IC50 was determined as 0.9 nM.

For the next test, the target named is T1, human NPY Y5 receptor (Homo sapiens (Human), UniProt Q15761). The experiment in a line: Affinity for human NPY Y5 receptor ([125I] peptide YY binding, CHO cell membranes). The following applies: membranes from CHO cells expressing human NPY Y5 receptor, [125I] peptide YY 60 pM, 25° C., 2 hours; read-out: 50% inhibitory concentration against the specific peptide YY binding (IC50 value).
T1 sequence (Q15761 whole entry): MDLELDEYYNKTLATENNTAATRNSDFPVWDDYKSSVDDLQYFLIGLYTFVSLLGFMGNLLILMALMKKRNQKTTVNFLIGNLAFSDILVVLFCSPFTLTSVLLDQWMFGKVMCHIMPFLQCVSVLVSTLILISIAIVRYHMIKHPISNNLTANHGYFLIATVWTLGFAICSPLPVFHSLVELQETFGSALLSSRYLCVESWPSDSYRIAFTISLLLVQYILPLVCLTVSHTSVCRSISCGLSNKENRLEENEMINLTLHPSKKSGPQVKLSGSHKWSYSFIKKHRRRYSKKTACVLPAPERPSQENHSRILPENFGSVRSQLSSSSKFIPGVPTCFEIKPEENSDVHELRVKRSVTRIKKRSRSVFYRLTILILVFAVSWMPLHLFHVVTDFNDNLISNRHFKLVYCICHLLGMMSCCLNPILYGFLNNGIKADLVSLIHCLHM
Text: cDNA sequence encoding a human NPY Y5 receptor (WO96/16542) was cloned in a vector (pME18S, Takebe et al. Mol. Cell. Biol. 8, 466-472). The obtained expression vector was transfected into CHO cells as a host by using Lipofect AMINE reagent (Trademark, Inbitrogen) according to the instruction manual. The cells that stably express human NPY Y5 receptor were obtained.
as §1, with “expressing human” for “expressing”, “[…]” for “[^125I]”, “glassfilter” for “glass filter”
Take `CCS(=O)(=O)NC[C@H]1CC[C@H](Nc2nc(-c3cccc(F)c3)no2)CC1` [Compound I-017]: the IC50 worked out at 0.81 nM.

In the case of `CCS(=O)(=O)NC[C@H]1CC[C@H](Nc2nc(-c3ccc(F)c(F)c3)no2)CC1` [Compound I-029], the IC50 turned out to be 0.86 nM.

A further test has as its target T1, human NPY Y5 receptor. The test is described as follows: Inhibitory effect on cAMP production in CHO cells. The following applies: CHO cells expressing human NPY Y5 receptor, 50 nM NPY, 10 μM forskolin; read-out: 50% inhibitory concentration (IC50 value) against the NPY activity on forskolin stimulated cAMP production. The format is cell-based. Here is the method:
CHO cells expressing human NPY Y5 receptor were incubated in the presence of 2.5 mM isobutylmethylxanthine (SIGMA) at 37° C. for 20 min. After the incubation the compound of the present invention was added, and then the mixture was incubated for 5 min. Next, 50 nM NPY and 10 μM forskolin (SIGMA) were added, and the mixture was incubated for 30 min. After termination of the reaction by adding 1N HCl, the amount of cAMP in the supernatant was determined with an EIA kit (Amersham LIFE SCIENCE). The inhibitory activity of NPY against forskolin stimulated cAMP production was expressed as 100% and the 50% inhibitory concentration (IC50 value) of the compound of the present invention against the NPY activity was calculated.
A general note: Changes in cAMP serve as a functional read-out for many G protein-coupled receptors.
With `CC(C)S(=O)(=O)NC[C@H]1CC[C@H](Nc2nc(-c3cccc(F)c3)no2)CC1` [Compound I-018], the IC50 was 2.1 nM.

`CCS(=O)(=O)NC[C@H]1CC[C@H](Nc2nc(-c3cccc(F)c3)no2)CC1` [Compound I-017]: the IC50 worked out at 3.3 nM.

For `CCS(=O)(=O)NC[C@H]1CC[C@H](Nc2nc(-c3ccc(F)c(F)c3)no2)CC1` [Compound I-029], the IC50 was found to be 1.3 nM.
